Source: patent US5043166A, “Liposome/anthraquinone drug composition and method” (priority 1989, dated 1991)
Like-named read-outs stand apart in the source and are kept apart here.

Experiments:
[1] = organ distribution of DXR after administration free or in liposomes; assay type: in vivo
human cancer patients = experiment: clinical trials with L-DXR in cancer patients; conditions: in vivo
Description: Eight cancer patients have been treated with the L-DXR composition of Example III. The administration of the drug was done using a 120 ml "Voluset" at a concentration of approximately 0.5 mg/ml in isotonic saline and at a rate of 2-3 ml per min. For intraarterial injections, peristaltic pumps were used, with the rate of infusion being ~1.5 ml/min. […] This was done taking advantage of previously implanted pumps. In both patients, the perfusion of the liver with the pump was previously examined with a Tc-99 labeled macroaggregated albumin scan.

[2] = heart, read-out: DXR level in Heart
[3] = intestine, read-out: DXR level in Intestine
[4] = kidney, read-out: DXR level in Kidney
[5] = liver, read-out: DXR level in Liver
[6] = lungs, read-out: DXR level in Lungs
[7] = skeletal muscle, read-out: DXR level in Skeletal Muscle
[8] = spleen, read-out: DXR level in Spleen

## COc1cccc2c1C(=O)c1c(O)c3c(c(O)c1C2=O)C[C@@](O)(C(=O)CO)C[C@@H]3O[C@H]1C[C@H](N)[C@H](O)[C@H](C)O1 [DXR, doxorubicin]
[1]; [2]
  concentration at 1 h: 8400 ng/g
  concentration at 5 h: 4200 ng/g
  concentration at 24 h: 900 ng/g
[1]; [3]
  concentration at 1 h: 5800 ng/g
  concentration at 5 h: 3100 ng/g
  concentration at 24 h: 1900 ng/g
[1]; [4]
  concentration at 1 h: 31900 ng/g
  concentration at 5 h: 19400 ng/g
  concentration at 24 h: 6900 ng/g
[1]; [5]
  concentration at 1 h: 30500 ng/g
  concentration at 5 h: 16400 ng/g
  concentration at 24 h: 3800 ng/g
[1]; [6]
  concentration at 1 h: 13200 ng/g
  concentration at 5 h: 8600 ng/g
  concentration at 24 h: 3600 ng/g
[1]; [7]
  concentration at 1 h: 2300 ng/g
  concentration at 5 h: 2800 ng/g
  concentration at 24 h: 590 ng/g
[1]; [8]
  concentration at 1 h: 8100 ng/g
  concentration at 5 h: 10700 ng/g
  concentration at 24 h: 8800 ng/g
Human cancer patients
  fever: fever was a constant feature
